Experiments:
[1] = organism: Sus scrofa; assay: Displacement of [3H]-ifenprodil from ifenprodil binding site of NMDA receptor in porcine hippocampus synaptosomal fractions at 100 uM after 2 hrs relative to control; type: tissue-based
[2] = Displacement of [3H]MK-801 from NMDA-NR2B receptor in porcine hippocampus synaptosomal fractions under nonequilibrium conditions after 15 mins; type: tissue-based, Sus scrofa
[3] = Displacement of [3H]-ifenprodil from ifenprodil binding site of NMDA receptor in porcine hippocampus synaptosomal fractions after 2 hrs; type: tissue-based, Sus scrofa
[4] = Displacement of [3H]MK-801 from low affinity site of NMDA receptor in porcine hippocampus synaptosomal fractions after 15 mins; type: tissue-based, Sus scrofa
[5] = target: hERG (KCNH2) (Homo sapiens, UniProt Q12809); assay: Residual current of human ERG expressed in CHO-K1 cells at 100 uM by patch clamp electrophysiological assay relative to control; conditions: CHO-K1 cells expressing human ERG
[6] = Displacement of [3H]MK-801 from high affinity site of NMDA-NR2B receptor in porcine hippocampus synaptosomal fractions after 15 mins; type: tissue-based, Sus scrofa
[7] = Displacement of [3H]-ifenprodil from ifenprodil binding site of NMDA receptor low affinity site in porcine hippocampus synaptosomal fractions after 2 hrs; type: tissue-based, Sus scrofa
[8] = organism: Sus scrofa; assay: Displacement of [3H]MK-801 from NMDA-NR2B receptor in porcine hippocampus synaptosomal fractions at 100 uM after 15 mins relative to control; type: tissue-based

Chain of hERG (KCNH2) (Q12809 whole entry): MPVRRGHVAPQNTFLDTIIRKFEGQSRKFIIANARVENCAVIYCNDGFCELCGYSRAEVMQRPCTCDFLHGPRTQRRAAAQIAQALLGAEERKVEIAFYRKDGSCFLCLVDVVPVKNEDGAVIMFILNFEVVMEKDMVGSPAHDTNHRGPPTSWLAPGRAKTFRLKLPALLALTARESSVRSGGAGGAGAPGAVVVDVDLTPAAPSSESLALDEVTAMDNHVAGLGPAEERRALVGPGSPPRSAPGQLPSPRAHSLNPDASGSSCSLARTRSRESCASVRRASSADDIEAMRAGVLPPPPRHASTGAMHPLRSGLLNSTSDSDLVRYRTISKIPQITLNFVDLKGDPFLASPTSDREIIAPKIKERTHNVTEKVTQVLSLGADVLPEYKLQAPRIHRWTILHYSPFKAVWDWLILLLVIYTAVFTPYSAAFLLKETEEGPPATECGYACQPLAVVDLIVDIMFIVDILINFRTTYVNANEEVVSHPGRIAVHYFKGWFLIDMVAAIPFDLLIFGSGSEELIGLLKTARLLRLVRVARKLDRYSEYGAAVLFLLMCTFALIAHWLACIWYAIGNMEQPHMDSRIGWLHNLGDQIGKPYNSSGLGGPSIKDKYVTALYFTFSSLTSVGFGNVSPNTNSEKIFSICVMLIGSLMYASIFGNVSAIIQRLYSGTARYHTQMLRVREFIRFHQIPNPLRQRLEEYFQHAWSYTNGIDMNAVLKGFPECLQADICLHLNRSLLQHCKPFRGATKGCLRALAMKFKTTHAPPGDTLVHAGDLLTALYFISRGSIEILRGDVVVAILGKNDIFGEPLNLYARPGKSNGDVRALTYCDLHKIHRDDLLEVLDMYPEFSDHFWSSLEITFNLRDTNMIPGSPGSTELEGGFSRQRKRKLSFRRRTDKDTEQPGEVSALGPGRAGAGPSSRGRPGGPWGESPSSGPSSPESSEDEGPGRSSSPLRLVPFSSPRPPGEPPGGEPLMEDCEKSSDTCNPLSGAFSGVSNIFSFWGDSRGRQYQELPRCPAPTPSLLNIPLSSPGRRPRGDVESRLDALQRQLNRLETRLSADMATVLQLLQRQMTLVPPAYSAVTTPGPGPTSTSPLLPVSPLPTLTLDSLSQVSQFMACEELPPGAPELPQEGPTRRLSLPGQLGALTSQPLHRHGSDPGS

Structure (SMILES)	IC50 [2]	IC50 [3]	other results
CN1Cc2ccccc2[C@@H]1C[C@H](O)c1ccc([N+](=O)[O-])cc1	43 µM	7.5 µM	
Cc1ccc([C@@H](O)C[C@@H]2c3ccccc3CN2C)cc1	23 µM	9.3 µM	
COc1cc2c(cc1OC)[C@H](C[C@H](O)c1ccc(Cl)cc1)N(C)CC2			IC50 [4]: 23.5 µM; IC50 [6]: 0.103 µM; IC50 [7]: 22.5 µM
CN1Cc2ccccc2[C@H]1C[C@@H](O)c1ccc(Cl)cc1		11 µM	Activity [8]: 78%
CN1Cc2ccccc2[C@@H]1C[C@@H](O)c1ccc(Cl)cc1	26 µM		Activity [1]: 77%
CN1Cc2ccccc2[C@H]1C[C@@H](O)c1ccc([N+](=O)[O-])cc1		52 µM	Activity [8]: 82%

The next lines start with results.

IC50 [2]	IC50 [3]	Structure (SMILES)	other results
28 µM		Cc1ccc([C@H](O)C[C@H]2c3ccccc3CN2C)cc1	Activity [1]: 65%
47 µM	21 µM	CN1Cc2ccccc2[C@H]1C[C@H](O)c1ccc(Cl)cc1	
	0.43 µM	Cc1ccc([C@@H](O)C[C@H]2c3ccccc3CN2C)cc1	IC50 [4]: 20 µM; residual current at 100 µM [5]: 2.6%; IC50 [6]: 0.21 µM
43 µM	42 µM	CN1Cc2ccccc2[C@H]1C[C@H](O)c1ccc([N+](=O)[O-])cc1	
31 µM	35 µM	Cc1ccc([C@H](O)C[C@@H]2c3ccccc3CN2C)cc1	
39 µM		CN1Cc2ccccc2[C@@H]1C[C@@H](O)c1ccc([N+](=O)[O-])cc1	Activity [1]: 54%
	0.27 µM	CN1Cc2ccccc2[C@@H]1C[C@H](O)c1ccc(Cl)cc1	IC50 [4]: 67 µM; residual current at 100 µM [5]: 1.6%; IC50 [6]: 0.5 µM

Reference: ChEMBL document CHEMBL1833813, “Synthesis of a series of γ-amino alcohols comprising an N-methyl isoindoline moiety and their evaluation as NMDA receptor antagonists” (Bioorg Med Chem Lett, 2011)
